Results on one compound are retold here after article PMC7710018, “Restoration of motor learning in a mouse model of Rett syndrome following long-term treatment with a novel small-molecule activator of TrkB” (Disease Models & Mechanisms, 2020).

“Also recorded” adds a separate entry of the source.

One test has as its system 3T3-p75 cells. Kind of test: NIH-3T3 cell survival (ViaLight). It is filed as cell-based, mouse. To be noted: serum-free medium, 72-96 h, PTX-BD4-3 1000 nM. How it is done:
(§1) Fig. 2. PTX-BD4-3 promotes cell survival preferentially through TrkB. (A-D) Neurotrophin receptor-expressing NIH-3T3 cells were incubated in culture medium (CM) alone or in medium plus either the indicated neurotrophins (BDNF, NGF, NT-3) or PTX-BD4-3 or its parent compound LM22A-4 for 72-96 h, after which survival was measured using the ViaLight assay. […] Scale bar: 10 μm. (B) Survival dose-response curves for PTX-BD4-3 and LM22A-4 in 3T3-TrkB cells. ^§P≤0.001 compared to CM alone. (C) Representative images of 3T3-TrkA, 3T3-TrkC and 3T3-p75 cells grown in the presence of CM alone, CM+neurotrophin or CM+PTX-BD4-3. Scale bar: 10 μm. NGF, NT-3 and BDNF served as positive controls for 3T3-TrkA, 3T3-TrkC and 3T3-p75 cells, respectively. (D) PTX-BD4-3 (1000 nM) had no effect on survival of 3T3-TrkA, 3T3-TrkC or 3T3-p75 cells compared to medium alone. *P≤0.05, ***P≤0.001 compared to CM alone. For each determination in B and D, n=10-32 wells derived from four to five independent experiments. Statistical significance was determined by one-way ANOVA with Dunnett's post hoc multiple comparison test. (E,F) […] protein was extracted from human cementoblast-like cell (HCEM) cultures treated with either culture medium alone, BDNF, LM22A-4 or PTX-BD4-3, immunoprecipitated with anti-TrkB antibody and then probed sequentially on western blots with anti-Shc and anti-TrkB antibody. The ratio of Shc to TrkB in treated cultures was normalized and compared to control (CM alone) using Kruskal-Wallis ANOVA followed by Dunn's multiple comparisons test (*P≤0.05, ^§P≤0.001). n=13 independent experiments, and each protein sample was run on duplicate western blots and the normalized values averaged. RLUs, relative light units.
(§2) Mouse NIH-3T3 cells expressing TrkA (NIH-3T3-TrkA) were provided by Dr William Mobley (University of California at San Diego, San Diego, CA, USA), and NIH-3T3 cells expressing TrkB (NIH-3T3-TrkB) or TrkC (NIH-3T3-TrkC) were provided by Dr David Kaplan (University of Toronto, Toronto, ON, Canada). Cells were propagated in Dulbecco's modified Eagle medium (DMEM) supplemented with 10% fetal bovine serum (FBS; Invitrogen) and 200-400 µg/ml Geneticin. Cells were seeded into 24-well plates (30,000 cells/well) and cultured in medium consisting of 50% PBS and 50% DMEM without supplements. Following exposure to BDNF (20 ng/ml, 0.7 nM) or 10-1000 nM LM22A-4 or PTX-BD4-3 for 72-96 h, cells were suspended in 50 µl lysis buffer, transferred to white, opaque 96-well culture plates and survival was measured using the ViaLight Assay (Lonza Group, Rockland, ME, USA).

Another test deals with 3T3-TrkC cells. Briefly: NIH-3T3 cell survival (ViaLight). Format: cell-based, mouse. The settings on record: serum-free medium, 72-96 h, PTX-BD4-3 1000 nM. The method, then: as §1, §2
A further test relates to 3T3-TrkA cells. Kind of test: NIH-3T3 cell survival (ViaLight). Format: cell-based, mouse. The settings on record: serum-free medium, 72-96 h, PTX-BD4-3 1000 nM. The method, then:
as §1, §2

The test system of test [1] is heterozygous (Het) female Mecp2 mutant mice. Kind of test: Foot slip. Format: in vivo, mouse. To be noted: chronic treatment, 24 h after last treatment (data not shown). The method, then:
Small-molecule compounds were diluted in saline and delivered by i.p. injection. To define the acute effects of single drug treatments, behavioral testing was initiated 1 h after dosing. Durable effects of single drug treatments were evaluated 24 h after dosing. To define the effects of repeated dosing, mice were treated once every 3 days (q72 h) for 4 or 8 weeks, and behavioral testing was performed 24 h after the last dose.
Foot slip was used to assess locomotor coordination and spontaneous movement on a challenging substrate. Animals were placed on an elevated wire mesh surface (50 cm^2) with 1 cm^2 openings and allowed to freely explore for 5 min ([Starkey et al., 2005]). Total distance traveled was measured by a computer-operated animal activity system (ANY-maze, Stoelting). The total number of forepaw and hindpaw slips, where the foot came completely through the grate with no toes remaining on the grid, was manually counted, and the number of slips/cm traveled was calculated.
Figure S3. Single administration of PTX-BD4-3 reduces foot slip errors in Het mice. Mice received a single injection of PTX-BD4-3 (P.1, P.5, P.50) one hour prior to the beginning of foot slip testing. n = 10-23 animals derived from 3 […]
***p<0.001 compared to saline-treated Wt mice (V, black bar), †p<0.05 compared to saline-treated Het mice (V, grey bar); One-Way ANOVA with LSD post-hoc analysis. […]

In test [2] the test system is 55 pharmacologically relevant receptors. Kind of test: Cerep ExpresSProfile screen, whole panel. To be noted: 10 μM; inhibition of binding greater than 50% = significant binding. The source says:
To further define the specificity of PTX-BD4-3 for TrkB, we screened 55 pharmacologically relevant receptors, including neurotransmitter and G-protein coupled receptors for PTX-BD4-3 binding (Table S1). […] Thus, as with LM22A-4 ([Massa et al., 2010]), the specificity of PTX-BD4-3 for TrkB is supported by multiple lines of evidence, including receptor binding, receptor activation, receptor adaptor recruitment and cell survival assays.
To evaluate the relative binding specificity of LM22A-4 ([Massa et al., 2010]) and PTX-BD4-3, binding to a broad range of 55 pharmacologically relevant receptors, including numerous neurotransmitter and G-protein coupled receptors was assessed using standard radioligand competition binding assays (ExpressSProfile) performed by Cerep, Inc. (Seattle, WA, USA). In addition, ADME-Tox analysis was performed by Cerep, Inc. All experimental conditions are described on the Cerep website (www.cerep.fr). […]
48 Ca2+ channel (L, verapamil site) 0 ‐1.3 ‐0.7
(phenylalkylamine) (antagonist radioligand) […]
51 Na+ channel (site 2) (antagonist radioligand) 0.6 11.7 6.1
52 Cl‐ channel (GABA‐gated) (antagonist 2.7 ‐5.3 ‐1.3 […]
Table S1. In vitro binding assays. […]
(Eurofins Panlabs, MO). The results are expressed as percent inhibition of control specific binding obtained in the presence of 10 micromolar PTX-BD4-3. […]

Turning to `COCCN(C)C(=O)c1cc(C(=O)N(C)CCOC)cc(C(=O)N(C)CCOC)c1` [PTX-BD4-3, benzene-1,3,5-tricarboxylic acid tris-[(2-methoxy-ethyl)-methyl-amide]], the “survival of 3T3-p75 cells” value in the test on 3T3-p75 cells is reported as “no effect”. Further, the “survival of 3T3-TrkC cells” value in the test with 3T3-TrkC cells is reported as “no effect”. For the same compound, the “survival of 3T3-TrkA cells” value in the test with 3T3-TrkA cells is reported as “no effect”. In addition, the foot slip errors result in test [1] is given as “no reduction”. Besides, the “binding within the panel of 55 receptors” value in test [2] is recorded as “negative; also recorded: no significant binding”.
